Results as given in patent US9375457B2, “Composition comprising Rhizoma coptidis, Cortex phellodendri and Fructus gardeniae and for treating neurodegenerative diseases” (Hong Kong Baptist University, priority 2013, dated 2016).

Tests used:
[1] = test system: N2a-SwedAPP cells; experiment: MTT viability assay in N2a-SwedAPP cells; type: cell-based, murine; conditions: mouse, 48 h
Experimental: (§1) N2a-SwedAPP cells were obtained from Dr. Gopal Thinakaran (University of Chicago, Chicago, Ill., USA). N2a-SwedAPP cells were cultured in Dulbecco's modified Eagle's medium (DMEM) and OPTI-MEM medium in a 1:1 ratio with 5% FBS, 50 μg/mL penicillin, 50 μg/mL streptomycin and 200 μg/mL G418 as previously described in Thinakaran G, Teplow D B, Siman R, Greenberg B, Sisodia S S (1996) Metabolism of the “Swedish” amyloid precursor protein variant in neuro2a (N2a) cells. J Biol Chem 271: 9390-9397. N2a-SwedAPP cells were incubated at 37° C. in a 5% CO2/95% humidity incubator. Cells were seeded 24 hours prior to the treatments. When growth reached close to 90% of confluence, cells were transferred into DMEM with 1% FBS for loading extracts. The final concentration of DMSO in all experiments was 0.1%, and this concentration caused no cytotoxicity.
For the viability assay, N2a-SwedAPP cells were seeded in a 96-well plate (7000 cells/well and 5000 cells/well). […] Finally, optical intensity was measured using a BioRad plate reader at 570 nm and a reference of 620 nm. […]
N2a-SwedishAPP cells are widely used as a cellular model of Alzheimer's disease, because they express a high level of APP and Aβ. The effects of HLJDT and its components on viability of N2SwedAPP cells are monitored by using the MTT assay. […]

[2] = test system: TgCRND8 mice; conditions: chronic administration; cited from earlier work
[3] = test system: APP processing (F1-APP, pAPPThr668, CTFs, sAPPα, sAPPβ-sw) in N2a-SwedAPP cells; experiment: Western blot of APP metabolic products in N2a-SwedAPP cells; type: cell-based, murine; parameters: key to Fl-APP (overall influence) / CTFs (overall influence) / sAPPα (overall influence) / sAPPβ (overall influence): ↓ decreased; ↑ increased; ? unchanged
Experimental: as §1
To detect the levels of APP metabolic products, the cell lysates and the conditioned media were prepared as described in Durairajan S S K, Liu L F, Lu J H, Koo I, Maruyama K, Chung S K, Huang J D, Li M. (2011) Stimulation of non-amyloidogenic processing of amyloid-β protein precursor by cryptotanshinone involves activation and translocation of ADAM10 and PKC-α. J Alzheimer's Dis 25: 245-262, with minor modification. N2a-SwedAPP cells were seeded at a density of 4×10^5/mL in DMEM medium in a 6-well plate and cultured for 1 day. After transfer, cells were treated with different doses of RC, CP, FG and RS for 48 hours, then the extracellular media were collected for detection of sAPPα and sAPPβ-sw, and cells were harvested to quantify F1-APP and β-actin by Western blot analysis, as described previously by Durairajan et al. For intracellular APP, APP-CTFs and Aβ preparation, cells were washed with ice-cold PBS twice and solubilized in ice-cold RIPA buffer with protease inhibitor cocktail added. Lysates were collected and centrifuged at 16,000×g for 15 minutes at 4° C. The resulting supernatants were collected, and their protein concentrations were determined with bicinchoninic acid (BCA) protein assay reagent (Thermo Scientific, IL, USA). For sAPPα and sAPPβ-sw detection, the conditioned media are collected and frozen in liquid nitrogen, subjected to lyophilization at −40° C. under vacuum of 105 μbar for 2 days in order to remove all liquid. The conditioned media were standardized to total cell lysate protein.
For Western blot analysis from cell culture or mouse brain, 10-30 μg total protein is separated on 10% and 15% SDS-PAGE gels and blotted onto PVDF membranes for the detection of full length APP (F1-APP), CTFs, sAPPα, sAPPβ-sw, 3-actin and phosphorylated APP (pAPPThr668). After blocking with 5% skimmed milk, the blots are incubated with primary antibodies overnight at 4° C. with shaking. Blots are washed and incubated with HRP-conjugated secondary antibodies. The goat anti-mouse IgG is used when the primary antibody is 6E10 (1:1000), sAPPβ-sw (1:100), or anti-β-actin (1:5000), and the goat anti-rabbit IgG is used when the primary antibody is anti-CT15 (1:5000) or pAPPThr668 (1:1000). After incubation with HRP-conjugated secondary antibody, immunoblots are treated with ECL and developed using X-ray films (Fujifilm). Films are scanned, and the band intensity is analyzed using Image J software (NIH Image).
Stripped CT15 and 6E10 probed membranes are reincubated with pAPPThr668 and sAPPβ-sw 6A1 antibodies, respectively.
Western blotting of N2a-SwedAPP cells is used to test differences in the processing of Swedish mutant APP by HLJDT components. Several antibodies are used in Western blot analysis: CT15 recognizes full length APP (F1-APP), 6E10 identifies only α-secretase-cleaved APP i.e sAPPα, and the sAPPβ-sw specific for β-secretase cleavage of Swedish mutant APP.

[4] = test system: intracellular Aβ1-40 and Aβ1-42 in N2a-SwedAPP cells; experiment: Sandwich ELISA of intracellular Aβ in N2a-SwedAPP cells; type: cell-based, murine; parameters: key to Aβs (overall influence): ↓ decreased; ↑ increased; ? unchanged
Experimental: N2a-SwedAPP cells were seeded at a density of 4×10^5/mL in DMEM medium in a 6-well plate and cultured for 1 day. After transfer, cells were treated with different doses of RC, CP, FG and RS for 48 hours, then the extracellular media were collected for detection of sAPPα and sAPPβ-sw, and cells were harvested to quantify F1-APP and β-actin by Western blot analysis, as described previously by Durairajan et al. For intracellular APP, APP-CTFs and Aβ preparation, cells were washed with ice-cold PBS twice and solubilized in ice-cold RIPA buffer with protease inhibitor cocktail added. Lysates were collected and centrifuged at 16,000×g for 15 minutes at 4° C. The resulting supernatants were collected, and their protein concentrations were determined with bicinchoninic acid (BCA) protein assay reagent (Thermo Scientific, IL, USA). […] The conditioned media were standardized to total cell lysate protein.
The levels of intracellular Aβ1-40 and Aβ1-42 are quantified by using a sandwich ELISA as previously described by Durairajan et al., 2011 with minor modification. Equal amounts of cell or brain lysates are used for Aβ quantification by sandwich ELISA. The monoclonal antibody 6E10 is used as the capture antibody by adding to ELISA plates (0.2 μg diluted in 0.1 M Na2CO3 (pH 9.6) per well) and incubated overnight at 4° C. The plates are washed with PBS (0.05% Tween 20) and blocked with 4% BlockAce (Serotec, Raleigh, N.C., USA) for 2 hours at room temperature. Equilibrated protein lysates from each treatment (a 100 μL volume is adjusted in all treatment groups by using PBS) are applied in duplicate and incubated at room temperature for 2 hours with constant rotation at 30 rpm. Biotinylated monoclonal anti-Aβ40 5C3 (50 ng per well) and biotinylated monoclonal 8G7 (50 ng per well) antibodies are used for detection of Aβ1-40 and Aβ1-42, respectively, and are diluted in 1% BlockAce and incubated for 2 hours at room temperature. Plates are thoroughly washed with PBS (0.05% Tween 20), and streptavidin conjugated HRP is added for 1 hour at room temperature. Finally the plates are washed four times with PBST before adding the substrate TMB for 30 minutes. Absorbance at 450 nm is measured in duplicate wells after addition of 2 M H2SO4. All ELISA experimental data are from three different days. Synthetic Aβ40 and Aβ42 peptides are used for construction of calibration curves, and Aβ is measured in lysates.

COc1ccc2cc3[n+](cc2c1OC)CCc1cc2c(cc1-3)OCO2 [berberine]
non-toxic concentration (highest concentration that shows greater than 90% cell viability) [1]: 12.5 µM
effect on Aβ pathology, gliosis and cognitive impairments [2]: significantly reduce
reduction of sAPPα level ([3]; 6.25 μM, 48 hours): 30%
reduction of sAPPβ-sw level ([3]; 6.25 μM, 48 hours): 45%
reduction of CTFs level ([3]; 12.5 μM, 48 hours): 67%
reduction of F1-APP level ([3]; 12.5 μM, 48 hours): 54%
reduction of pAPPThr668 level ([3]; 12.5 μM, 48 hours): 42%
reduction of sAPPα level ([3]; 12.5 μM, 48 hours): 58%
reduction of sAPPβ-sw level ([3]; 12.5 μM, 48 hours): 70%
CTFs (overall influence) ([3]; N2a-SwedAPP cells): ↓
Fl-APP (overall influence) ([3]; N2a-SwedAPP cells): ↓
sAPPα (overall influence) ([3]; N2a-SwedAPP cells): ↓
sAPPβ (overall influence) ([3]; N2a-SwedAPP cells): ↓
reduction of intracellular Aβ1-40 ([4]; 12.5 μM, 48 h): 37%
reduction of intracellular Aβ1-42 ([4]; 12.5 μM, 48 h): 25%
Aβs (overall influence) ([4]; N2a-SwedAPP cells): ↓
